Data published in patent US20250100996A1, “HETEROCYCLOALKYL AND HETEROARYL COMPOUNDS AND PHARMACEUTICAL COMPOSITIONS THAT MODULATE IKZF2” (Plexium, Inc., priority 2021, published 2025).

Legend:
[1] = molecular target: T1, human E3 ligase component cereblon (CRBN) (Homo sapiens, UniProt Q96SW2); test: Cereblon (CRBN) target engagement, NanoBRET TE Intracellular E3 Ligase Assay in transfected HEK-293T cells; settings: read-out: CRBN Binding EC50
T1 construct: host or cells: HEK293T
Method in brief: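 Tracer displacement was read as the 610/450 nm BRET signal after 2 h at 37° C with an 11-point dilution series, typically 10 μM to 100 pM. Live HEK-293T cells expressed NanoLuc fused N-terminal to human CRBN together with DDB1. IC50 was fitted with a four-parameter logistic model.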

GSPT1 = molecular target: T2, GSPT1 (Homo sapiens, UniProt P15170); test: GSPT1 reporter degradation assay (HEK293 hGSPT1 HiBiT-tagged cells); format: cell-based; settings: 24 hour incubation
T2 construct: HiBiT-tagged cells were generated using CRISPR-Cas12a technology; endogenous in cells; host or cells: HEK293 (endogenous GSPT1 locus edited with HiBiT knock-in)
T2 sequence (Q96SW2 whole entry partner): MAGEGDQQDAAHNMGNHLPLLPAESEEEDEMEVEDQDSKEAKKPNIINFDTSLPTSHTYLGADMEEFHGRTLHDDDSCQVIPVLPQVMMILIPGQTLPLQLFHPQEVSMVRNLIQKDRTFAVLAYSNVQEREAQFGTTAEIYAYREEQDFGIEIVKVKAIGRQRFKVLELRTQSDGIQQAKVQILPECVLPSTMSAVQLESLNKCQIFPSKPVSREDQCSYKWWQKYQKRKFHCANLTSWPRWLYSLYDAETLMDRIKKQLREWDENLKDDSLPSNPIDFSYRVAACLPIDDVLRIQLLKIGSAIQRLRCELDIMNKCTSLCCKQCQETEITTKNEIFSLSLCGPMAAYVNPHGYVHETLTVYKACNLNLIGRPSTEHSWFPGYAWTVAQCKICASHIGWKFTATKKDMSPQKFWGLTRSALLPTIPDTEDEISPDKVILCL
T2 sequence (Q16531 whole entry partner): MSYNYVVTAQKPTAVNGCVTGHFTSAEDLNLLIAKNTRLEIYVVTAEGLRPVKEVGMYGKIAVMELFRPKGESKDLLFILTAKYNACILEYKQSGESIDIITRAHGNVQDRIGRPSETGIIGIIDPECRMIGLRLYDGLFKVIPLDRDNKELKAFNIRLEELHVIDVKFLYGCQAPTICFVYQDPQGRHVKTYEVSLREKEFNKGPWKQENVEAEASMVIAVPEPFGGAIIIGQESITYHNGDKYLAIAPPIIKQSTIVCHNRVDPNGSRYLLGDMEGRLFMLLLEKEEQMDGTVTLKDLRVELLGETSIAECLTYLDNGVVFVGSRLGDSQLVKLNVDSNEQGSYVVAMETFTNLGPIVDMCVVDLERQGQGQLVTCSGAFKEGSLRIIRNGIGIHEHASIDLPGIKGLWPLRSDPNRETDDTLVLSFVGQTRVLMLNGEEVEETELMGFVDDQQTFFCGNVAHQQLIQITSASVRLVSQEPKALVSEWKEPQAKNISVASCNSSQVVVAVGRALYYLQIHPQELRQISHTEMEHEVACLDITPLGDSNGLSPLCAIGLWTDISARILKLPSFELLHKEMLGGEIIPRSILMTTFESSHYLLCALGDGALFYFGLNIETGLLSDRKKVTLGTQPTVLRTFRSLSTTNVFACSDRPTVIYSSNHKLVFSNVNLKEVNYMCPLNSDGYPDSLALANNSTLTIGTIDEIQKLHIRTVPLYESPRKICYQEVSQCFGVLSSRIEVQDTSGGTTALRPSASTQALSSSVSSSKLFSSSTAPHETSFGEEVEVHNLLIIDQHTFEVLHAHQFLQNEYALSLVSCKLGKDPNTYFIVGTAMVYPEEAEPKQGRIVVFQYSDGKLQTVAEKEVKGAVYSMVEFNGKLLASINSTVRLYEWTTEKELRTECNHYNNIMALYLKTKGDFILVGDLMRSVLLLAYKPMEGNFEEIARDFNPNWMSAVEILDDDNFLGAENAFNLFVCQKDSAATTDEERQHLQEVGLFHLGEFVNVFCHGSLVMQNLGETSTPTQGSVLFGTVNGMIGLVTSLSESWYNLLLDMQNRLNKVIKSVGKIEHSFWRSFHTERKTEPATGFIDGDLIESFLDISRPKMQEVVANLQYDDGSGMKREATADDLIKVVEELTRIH
T2 sequence (P15170 whole entry): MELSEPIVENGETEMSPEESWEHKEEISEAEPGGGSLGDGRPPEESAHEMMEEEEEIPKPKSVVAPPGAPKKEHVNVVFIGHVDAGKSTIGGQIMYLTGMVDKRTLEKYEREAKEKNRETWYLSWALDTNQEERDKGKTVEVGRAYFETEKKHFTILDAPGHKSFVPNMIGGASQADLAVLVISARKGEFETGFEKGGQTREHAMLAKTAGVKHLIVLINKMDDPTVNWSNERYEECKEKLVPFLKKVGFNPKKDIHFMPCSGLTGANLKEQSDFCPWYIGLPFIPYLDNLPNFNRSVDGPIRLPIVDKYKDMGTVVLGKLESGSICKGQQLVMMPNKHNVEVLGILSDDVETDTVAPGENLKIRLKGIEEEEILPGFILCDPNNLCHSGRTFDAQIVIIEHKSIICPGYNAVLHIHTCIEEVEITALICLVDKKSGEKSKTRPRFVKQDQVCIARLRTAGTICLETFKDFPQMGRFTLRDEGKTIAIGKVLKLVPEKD
Procedure: HEK293_hGSPTl_HiBiT-tagged cells were generated using CRISPR-Cas12a technology. Briefly, ˜400,000 HEK293 cells were transiently co-transfected with precomplexed ribonuclear proteins (RNPs) consisting of 80 pmol of crRNA (IDT), 62 pmol of Cas12a protein (IDT), 3 μg of ssODN donor (IDT; Alt® modifications), 78 pmol of electroporation enhancer (IDT), and 200 ng of pMaxGFP (Lonza). The transfection was performed via nucleofection (Lonza, 4D-Nucleofector X-unit) using solution P3 and program CM-130 in a ([…]) cuvette. Five days post-nucleofection, cells were single-cell-sorted for GFP+(transfected) cells by FACs in 96-well plates and clonally selected. Clones were screened and verified for the desired modification via targeted deep sequencing using gene-specific primers with partial Illumina adapter overhangs as previously described. In brief, clonal cell pellets were harvested, lysed, and used to generate gene-specific amplicons with partial Illumina adapters in PCR #1. Amplicons were indexed in PCR #2 and pooled with other targeted amplicons for other loci to create sequence diversity. Additionally, 10% PhiX sequencing control V3 (Illumina) was added to the pooled amplicon library prior to running the sample on a Miseq Sequencer System (Illumina) to generate paired 2×250 bp reads. Samples were demultiplexed using the index sequences, fastq files were generated, and NGS analysis was performed using CRIS.py. Final clones were authenticated using the PowerPlex fusion system (Promega) and tested negative for mycoplasma by the MycoAlertTMPlus mycoplasma detection kit (Lonza).
Editing construct sequences and screening primers are outlined below (sequence from 5′ to 3′). hGSPT1Cas12acrRNA, CAGE635.GSPT1.g1: […]; CAGE635.g1.anti.ssODN: ttcctcacagtattgtgcagggtcatcaagaaaatgctta[…] CAGCCGCTCACgtcCttctctggaaccagtttcagaacttttccaattgcaatggtcttacctagaaatgaaattttaa (HiBiT tag and silent blocking modifications to prevent Cas12a recutting after integration are in upper case); CAGE635.hGSPT1.DS.F: […]; CAGE635.hGSPT1.DS.R: GTGAA GTAGGCTTCTGCAGTC.
The GSPT1 degradation assay was carried out by harvesting the HEK 293T reporter cell lines and resuspending the cells in media formulated for reduced background fluorescence (FluoroBrite; Thermo Fisher). The respective cell lines were seeded at a density of 8,000 cells/well into white-opaque 384-well optical grade assay tissue culture plates (Greiner 781080-20). The cells were incubated overnight at 37° C. to allow for attachment to the assay plate. Dilutions of the compounds were prepared in DMSO from 10 mM compound stocks. Test compounds were added in a 10-point dilution series (typically 10 μM to 100 pM) using a TECAN D300e Digital Dispenser with an upper limit of 0.5% final DMSO. Plates were centrifuged at 320×g for 2 minutes at room temperature, and subsequently incubated at 37° C.
After 24 hour incubation with the compounds, the plates were allowed to cool to room temperature for 10 minutes. 30 μL of HiBiT lytic buffer+1:50 HiBiT substrate Solution were added to each well. Plates were centrifuged at 320×g for 2 minutes at room temperature and then incubated with shaking at room temperature for 10 minutes covered with foil. Plates were read on a CLARIOstar microplate reader (BMG LabTech), measuring at 450 nm (donor emission) and 610 nm or 630 nm (acceptor emission). The DC50 values were determined by regression to best fit four-parameter logistic curves using GraphPad Prism.

T1 sequence (Q96SW2 whole entry): as the sequence (Q96SW2 whole entry partner) above
T1 sequence (Q16531 whole entry partner): as the sequence (Q16531 whole entry partner) above

EC50 [1] [nM] | DC50 (GSPT1) [nM] | SMILES
3 | > 30000 | CC12CC(C(=O)N3CCC(C4CN([C@H]5CCCC[C@@H]5Oc5ccc6c(c5)CN(C5CCC(=O)NC5=O)C6=O)C4)CC3)(C1)C2 (stereo partly drawn) [Compound 28-A, 3-(5-(((1S,2S)-2-(3-(1-(3-methylbicyclo[1.1.1]pentane-1-carbonyl)piperidin-4-yl)azetidin-1-yl)cyclohexyl)oxy)-1-oxoisoindolin-2-yl)piperidine-2,6-dione]
3 | > 30000 | O=C1CCC(N2Cc3cc(O[C@H]4CCCC[C@@H]4N4CC(c5ccc6cccnc6c5)C4)ccc3C2=O)C(=O)N1 (stereo partly drawn) [Compound 87-B, 3-(1-oxo-5-(((1S,2S)-2-(3-(quinolin-7-yl)azetidin-1-yl)cyclohexyl)oxy)isoindolin-2-yl)piperidine-2,6-dione]
14 | > 30000 | O=C1CCC(N2Cc3cc(O[C@H]4CCCC[C@@H]4N4CC(C5CCOCC5F)C4)ccc3C2=O)C(=O)N1 (stereo partly drawn) [Compound 55-A, 3-(5-(((1S,2S)-2-(3-(3-fluorotetrahydro-2H-pyran-4-yl)azetidin-1-yl)cyclohexyl)oxy)-1-oxoisoindolin-2-yl)piperidine-2,6-dione]
8 | > 30000 | CC1CC1C(=O)N1CCC(C2CN([C@H]3CCCC[C@@H]3Oc3ccc4c(c3)CN(C3CCC(=O)NC3=O)C4=O)C2)CC1 (stereo partly drawn) [Compound 35-A, 3-(5-(((1S,2S)-2-(3-(1-(2-methylcyclopropane-1-carbonyl)piperidin-4-yl)azetidin-1-yl)cyclohexyl)oxy)-1-oxoisoindolin-2-yl)piperidine-2,6-dione]
39 | > 30000 | O=C1CCC(N2Cc3cc(O[C@H]4CCCC[C@@H]4N4CC(C5CCOC5)C4)ccc3C2=O)C(=O)N1 (stereo partly drawn) [Compound 14-A, 3-(1-oxo-5-(((1S,2S)-2-(3-(tetrahydrofuran-3-yl)azetidin-1-yl)cyclohexyl)oxy)isoindolin-2-yl)piperidine-2,6-dione]
7 | > 30000 | CC1(C(=O)N2CCC(C3CN([C@H]4CCCC[C@@H]4Oc4ccc5c(c4)CN(C4CCC(=O)NC4=O)C5=O)C3)CC2)CCCC1 (stereo partly drawn) [Compound 33-A, 3-(5-(((1S,2S)-2-(3-(1-(1-methylcyclopentane-1-carbonyl)piperidin-4-yl)azetidin-1-yl)cyclohexyl)oxy)-1-oxoisoindolin-2-yl)piperidine-2,6-dione]
10 | > 30000 | O=C1CCC(N2Cc3cc(O[C@H]4CCCC[C@@H]4N4CC(C5CCN(C(=O)CC6CC6)CC5)C4)ccc3C2=O)C(=O)N1 (stereo partly drawn) [Compound 34-A, 3-(5-(((1S,2S)-2-(3-(1-(2-cyclopropylacetyl)piperidin-4-yl)azetidin-1-yl)cyclohexyl)oxy)-1-oxoisoindolin-2-yl)piperidine-2,6-dione]
6 | > 30000 | CC1(C(=O)N2CCC(C3CN([C@H]4CCCC[C@@H]4Oc4ccc5c(c4)CN(C4CCC(=O)NC4=O)C5=O)C3)CC2)CC1 (stereo partly drawn) [Compound 31-A, 3-(5-(((1S,2S)-2-(3-(1-(1-methylcyclopropane-1-carbonyl)piperidin-4-yl)azetidin-1-yl)cyclohexyl)oxy)-1-oxoisoindolin-2-yl)piperidine-2,6-dione]
5 | > 30000 | O=C1CCC(N2Cc3cc(O[C@H]4CCCC[C@@H]4N4CC(C5CCN(C(=O)C6CC(F)(F)C6)CC5)C4)ccc3C2=O)C(=O)N1 (stereo partly drawn) [Compound 32-A, 3-(5-(((1S,2S)-2-(3-(1-(3,3-difluorocyclobutane-1-carbonyl)piperidin-4-yl)azetidin-1-yl)cyclohexyl)oxy)-1-oxoisoindolin-2-yl)piperidine-2,6-dione]
3 | > 30000 | O=C1CCC(N2Cc3cc(O[C@H]4CCCC[C@@H]4N4CC(C5CCN(S(=O)(=O)C6CCC6)CC5)C4)ccc3C2=O)C(=O)N1 (stereo partly drawn) [Compound 57-A, 3-(5-(((1S,2S)-2-(3-(1-(cyclobutylsulfonyl)piperidin-4-yl)azetidin-1-yl)cyclohexyl)oxy)-1-oxoisoindolin-2-yl)piperidine-2,6-dione]
67 | > 30000 | CC1(C(=O)N2CCC(C3CN([C@H]4CCCC[C@@H]4Oc4ccc5c(c4)CN(C4CCC(=O)NC4=O)C5=O)C3)CC2)COC1 (stereo partly drawn) [Compound 29-A, 3-(5-(((1S,2S)-2-(3-(1-(3-methyloxetane-3-carbonyl)piperidin-4-yl)azetidin-1-yl)cyclohexyl)oxy)-1-oxoisoindolin-2-yl)piperidine-2,6-dione]
3 | > 30000 | O=C1CCC(N2Cc3cc(O[C@H]4CCCC[C@@H]4N4CC(C5CCN(C(=O)C6(F)CC6)CC5)C4)ccc3C2=O)C(=O)N1 (stereo partly drawn) [Compound 42-A, 3-(5-(((1S,2S)-2-(3-(1-(1-fluorocyclopropane-1-carbonyl)piperidin-4-yl)azetidin-1-yl)cyclohexyl)oxy)-1-oxoisoindolin-2-yl)piperidine-2,6-dione]
4 | > 30000 | N#CC1(C(=O)N2CCC(C3CN([C@H]4CCCC[C@@H]4Oc4ccc5c(c4)CN(C4CCC(=O)NC4=O)C5=O)C3)CC2)CCC1 (stereo partly drawn) [Compound 30-A, 1-(4-(1-((1S,2S)-2-((2-(2,6-dioxopiperidin-3-yl)-1-oxoisoindolin-5-yl)oxy)cyclohexyl)azetidin-3-yl)piperidine-1-carbonyl)cyclobutane-1-carbonitrile]
10 | > 30000 | N#CC1(C(=O)N2CCC(C3CN([C@H]4CCCC[C@@H]4Oc4ccc5c(c4)CN(C4CCC(=O)NC4=O)C5=O)C3)CC2)CC1 (stereo partly drawn) [Compound 27-A, 1-(4-(1-((1S,2S)-2-((2-(2,6-dioxopiperidin-3-yl)-1-oxoisoindolin-5-yl)oxy)cyclohexyl)azetidin-3-yl)piperidine-1-carbonyl)cyclopropane-1-carbonitrile]
